Measurements reported in US8614195B2, “Glycoside derivatives and uses thereof” (Novartis AG, priority 2011, dated 2013).

What was measured:
human SGLT1 = human SGLT1 (Homo sapiens (Human), UniProt P13866); test: SGLT1 assay: analogous 14C-AMG uptake test with hSGLT1 expressed in CHO-K1 or HEK293 cells; assay type: cell-based; conditions: n = 1-4
Method: (§1) The SGLT-2 assay is carried out as follows: CHO-hSGLT2 cells are cultivated in Ham's F12 Medium (BioWhittaker) with 10% foetal calf serum and 250 μg/mL zeocin (Invitrogen), and HEK293-hSGLT2 cells are cultivated in DMEM medium with 10% foetal calf serum and 250 μg/mL zeocin (Invitrogen). The cells are detached from the culture flasks by washing twice with PBS and subsequently treating with trypsin/EDTA. After the addition of cell culture medium the cells are centrifuged, resuspended in culture medium and counted in a Casy cell counter. Then 40,000 cells per well are seeded into a white, 96-well plate coated with poly-D-lysine and incubated overnight at 37° C., 5% CO2. The cells are washed twice with 250 μl of assay buffer (Hanks Balanced Salt Solution, 137 mM NaCl, 5.4 mM KCl, 2.8 mM CaCl2, 1.2 mM MgSO4 and 10 mM HEPES (pH 7.4), 50 μg/mL of gentamycin). 250 μl of assay buffer and 5 μl of test compound are then added to each well and the plate is incubated for a further 15 minutes in the incubator. 5 μl of 10% DMSO are used as the negative control. The reaction is started by adding 5 μl of 14 C— AMG (0.05 μCi) to each well. After 2 hours' incubation at 37° C., 5% CO2, the cells are washed again with 250 μl of PBS […] and then lysed by the addition of 25 μl of 0.1 N NaOH (5 min. at 37° C.). 200 μl of MicroScint20 (Packard) are added to each well and incubation is continued for a further 20 min at 37° C. After this incubation the radioactivity of the ^14C-AMG absorbed is measured in a Topcount (Packard) using a ^14C scintillation program.
To determine the selectivity with respect to human SGLT1 an analogous test is set up in which the cDNA for hSGLTI (Genbank Ace. No. NM000343) instead of hSGLT2 cDNA is expressed in CHO-K1 or HEK293 cells.
The title compounds of the Examples were evaluated in the above described assays and the results of which are collated in Table 1.

[1] = target: human sodium glucose co-transporter 2 (SGLT2) (Homo sapiens (Human), UniProt P31639); test: SGLT-2 assay: 14C-AMG uptake in CHO-hSGLT2 or HEK-hSGLT2 cells; assay type: cell-based; conditions: n = 1-4
Method: These cell lines transport ^14C-labelled alpha-methyl-glucopyranoside (^14C-AMG, Amersham) into the interior of the cell in sodium-dependent manner.
as §1

[2] = title compounds of the Examples (prodrugs)

human SGLT1, sequence (P13866 whole entry): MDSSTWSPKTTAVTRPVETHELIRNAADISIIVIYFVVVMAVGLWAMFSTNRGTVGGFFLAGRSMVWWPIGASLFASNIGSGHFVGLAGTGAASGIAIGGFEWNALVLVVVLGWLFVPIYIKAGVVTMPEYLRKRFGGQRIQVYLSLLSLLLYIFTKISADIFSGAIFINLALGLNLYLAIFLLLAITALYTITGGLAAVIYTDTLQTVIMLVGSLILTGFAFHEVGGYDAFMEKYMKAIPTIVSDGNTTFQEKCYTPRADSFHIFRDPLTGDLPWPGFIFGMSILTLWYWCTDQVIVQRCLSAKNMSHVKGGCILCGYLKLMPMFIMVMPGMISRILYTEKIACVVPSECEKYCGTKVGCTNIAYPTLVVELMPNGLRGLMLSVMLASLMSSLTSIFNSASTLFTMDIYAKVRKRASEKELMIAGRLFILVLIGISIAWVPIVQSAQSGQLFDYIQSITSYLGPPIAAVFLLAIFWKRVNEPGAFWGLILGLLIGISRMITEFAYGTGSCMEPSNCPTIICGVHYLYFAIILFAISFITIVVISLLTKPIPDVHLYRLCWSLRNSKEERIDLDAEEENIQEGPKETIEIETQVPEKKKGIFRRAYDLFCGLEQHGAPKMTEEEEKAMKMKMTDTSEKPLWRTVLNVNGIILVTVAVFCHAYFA
human sodium glucose co-transporter 2 (SGLT2), sequence (P31639 whole entry): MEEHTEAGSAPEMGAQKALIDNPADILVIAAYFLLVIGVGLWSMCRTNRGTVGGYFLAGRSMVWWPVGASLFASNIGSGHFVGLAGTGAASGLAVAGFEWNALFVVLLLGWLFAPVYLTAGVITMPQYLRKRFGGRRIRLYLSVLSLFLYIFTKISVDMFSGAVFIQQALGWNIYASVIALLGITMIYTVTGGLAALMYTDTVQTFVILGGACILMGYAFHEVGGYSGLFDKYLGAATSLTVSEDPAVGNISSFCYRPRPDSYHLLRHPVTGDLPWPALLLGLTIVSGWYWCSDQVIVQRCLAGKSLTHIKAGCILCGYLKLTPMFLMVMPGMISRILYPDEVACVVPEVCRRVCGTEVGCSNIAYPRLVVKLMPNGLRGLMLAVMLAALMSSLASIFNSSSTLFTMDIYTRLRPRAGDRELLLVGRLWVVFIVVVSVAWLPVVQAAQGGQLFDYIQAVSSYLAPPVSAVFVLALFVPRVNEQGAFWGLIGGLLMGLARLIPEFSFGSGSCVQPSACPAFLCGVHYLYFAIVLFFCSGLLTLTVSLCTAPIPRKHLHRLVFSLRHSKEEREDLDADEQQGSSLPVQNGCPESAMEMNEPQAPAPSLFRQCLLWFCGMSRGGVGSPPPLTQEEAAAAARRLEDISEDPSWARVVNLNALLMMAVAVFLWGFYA

SMILES	IC50 (human SGLT1) [nM]	IC50 ([1]; parent compound of the prodrugs) [nM]	IC50 [1, 2] [nM]	IC50 (human SGLT1; [2]) [nM]
CCc1ccc([C@@H]2O[C@H](CO)[C@@H](O)[C@H](O)[C@H]2O)cc1Cc1ccc2c(c1)OCCO2 [(2S,3R,4R,5S,6R)-2-[3-(2,3-Dihydro-benzo[1,4]dioxin-6-ylmethyl)-4-ethyl-phenyl]-6-hydroxymethyl-tetrahydro-pyran-3,4,5-triol]	22			
OC[C@H]1O[C@@H](c2ccc(C3CC3)c(Cc3ccc4c(c3)OCCO4)c2)[C@H](O)[C@@H](O)[C@@H]1O [(2S,3R,4R,5S,6R)-2-[4-Cyclopropyl-3-(2,3-dihydro-benzo[1,4]dioxin-6-ylmethyl)-phenyl]-6-hydroxymethyl-tetrahydro-pyran-3,4,5-triol]	9	2.2		
CCc1ccc([C@@H]2O[C@H](COC(=O)[C@H](N)C(C)C)[C@@H](O)[C@H](O)[C@H]2O)cc1Cc1ccc2c(c1)OCCO2 [Example 1, (R)-2-Amino-3-methyl-butyric acid (2R,3S,4R,5R,6S)-6-[3-(2,3-dihydro-benzo[1,4]dioxin-6-ylmethyl)-4-ethyl-phenyl]-3,4,5-trihydroxy-tetrahydro-pyran-2-ylmethyl ester]			22.5	409
COC(=O)OC[C@H]1O[C@@H](c2ccc(C3CC3)c(Cc3ccc4c(c3)OCCO4)c2)[C@H](O)[C@@H](O)[C@@H]1O [Example 2, carbonic acid (2R,3S,4R,5R,6S)-6-[4-cyclopropyl-3-(2,3-dihydro-benzo[1,4]dioxin-6-ylmethyl)-phenyl]-3,4,5-trihydroxy-tetrahydro-pyran-2-ylmethyl ester methyl ester]			17.5	35
CCOP(=O)(OCC)OC[C@H]1O[C@@H](c2ccc(CC)c(Cc3ccc4c(c3)OCCO4)c2)[C@H](O)[C@@H](O)[C@@H]1O [Example 3, phosphoric acid (2R,3S,4R,5R,6S)-6-[3-(2,3-dihydro-benzo[1,4]dioxin-6-ylmethyl)-4-ethyl-phenyl]-3,4,5-trihydroxy-tetrahydro-pyran-2-ylmethyl ester diethyl ester]			> 1000	814
CCOP(=O)(OCC)OC[C@H]1O[C@@H](c2ccc(C3CC3)c(Cc3ccc4c(c3)OCCO4)c2)[C@H](O)[C@@H](O)[C@@H]1O [Example 3a, Phosphoric acid (2R,3S,4R,5R,6S)-6-[4-cyclopropyl-3-(2,3-dihydro-benzo[1,4]dioxin-6-ylmethyl)-phenyl]-3,4,5-trihydroxy-tetrahydro-pyran-2-yl methyl ester diethyl ester]			> 1000	5650

The remaining lines, values ahead:

IC50 (human SGLT1) [nM]	IC50 ([1]; parent compound of the prodrugs) [nM]	IC50 [1, 2] [nM]	IC50 (human SGLT1; [2]) [nM]	SMILES
		97	308	CCOC(=O)OC[C@H]1O[C@@H](c2ccc(C3CC3)c(Cc3ccc4c(c3)OCCO4)c2)[C@H](O)[C@@H](O)[C@@H]1O [Example 2a, Carbonic acid (2R,3S,4R,5R,6S)-6-[4-cyclopropyl-3-(2,3-dihydro-benzo[1,4]dioxin-6-ylmethyl)-phenyl]-3,4,5-trihydroxy-tetrahydro-pyran-2-ylmethyl ester ethyl ester]
		186	338	CC(C)COC(=O)OC[C@H]1O[C@@H](c2ccc(C3CC3)c(Cc3ccc4c(c3)OCCO4)c2)[C@H](O)[C@@H](O)[C@@H]1O [Example 2b, Carbonic acid (2R,3S,4R,5R,6S)-6-[4-cyclopropyl-3-(2,3-dihydro-benzo[1,4]dioxin-6-ylmethyl)-phenyl]-3,4,5-trihydroxy-tetrahydro-pyran-2-ylmethyl ester isobutyl ester]
		27	197	CCOC(=O)OC[C@H]1O[C@@H](c2ccc(CC)c(Cc3ccc4c(c3)OCCO4)c2)[C@H](O)[C@@H](O)[C@@H]1O [Example 2c, Carbonic acid (2R,3S,4R,5R,6S)-6-[3-(2,3-dihydro-benzo[1,4]dioxin-6-ylmethyl)-4-ethyl-phenyl]-3,4,5-trihydroxy-tetrahydro-pyran-2-ylmethyl ester ethyl ester]
		143	3440	CCc1ccc([C@@H]2O[C@H](COC(=O)OCC3CC4CCC3C4)[C@@H](O)[C@H](O)[C@H]2O)cc1Cc1ccc2c(c1)OCCO2 (stereo partly drawn) [Example 2f, Carbonic acid bicyclo[2.2.1]hept-2-ylmethyl ester (2R,3S,4R,5R,6S)-6-[3-(2,3-dihydro-benzo[1,4]dioxin-6-ylmethyl)-4-ethyl-phenyl]-3,4,5-trihydroxy-tetrahydro-pyran-2-ylmethyl ester]
		567	1000	CCc1ccc([C@@H]2O[C@H](COC(=O)O[C@@H](C)c3ccccc3)[C@@H](O)[C@H](O)[C@H]2O)cc1Cc1ccc2c(c1)OCCO2 [Example 2g, Carbonic acid (2R,3S,4R,5R,6S)-6-[3-(2,3-dihydro-benzo[1,4]dioxin-6-ylmethyl)-4-ethyl-phenyl]-3,4,5-trihydroxy-tetrahydro-pyran-2-ylmethyl ester (S)-1-phenyl-ethyl ester]
